Experimental data taken from paper PMC3406249 (Hepatology (Baltimore, Md.), 2012).
No end group written: not given here.

What was measured:
[1] = MTT assay; estimated
JFH-1 HCVcc = settings: 12 h
HCVpp (H77) = settings: 50% cell culture inhibitory concentration, HCVpp entry; mean ± SD

Row | Sequence | 50% cytotoxic concentration relative to IC50 [1] [fold] | IC50 (JFH-1 HCVcc) [µM] | IC50 (HCVpp (H77)) [µM]
1 | MANAGLQLLGFILAFLGW [CL58] | ~100 | 2 | –
2 | GAIVSTALPQWRIYSYAG [CL58.6] | – | – | 23.8 ± 2.1
